Results reported in publication PMC10797614, “MYC-Targeting Inhibitors Generated from a Stereodiversified Bicyclic Peptide Library” (Journal of the American Chemical Society, 2024).
*1 amine or outer side, *2 acyl side, *3 side chain or, on linkers, in order; H or OH if unused. Where a SMILES comes first, the peptide text is derived from it. Bridges are numbered along the chain shown (N, C = ends). X1 = O=C([C@@H]1C[C@H](C=CCO[*:3])C[C@@H]1C=CCO[*:1])[*:2]

How the values were obtained:
MYC = biological target: T1, MYC (Homo sapiens, UniProt P01106); assay: Temperature-dependent circular dichroism spectroscopy; assay type: binding; conditions: NT-B2R 100 μM, MYC 0.1 mg/mL, 0.1 M phosphate buffer pH 7.4, 30 °C to 60 °C
T1 construct: made in house; host or cells: E. coli BL21(DE3)
T1 sequence (P01106 16-454): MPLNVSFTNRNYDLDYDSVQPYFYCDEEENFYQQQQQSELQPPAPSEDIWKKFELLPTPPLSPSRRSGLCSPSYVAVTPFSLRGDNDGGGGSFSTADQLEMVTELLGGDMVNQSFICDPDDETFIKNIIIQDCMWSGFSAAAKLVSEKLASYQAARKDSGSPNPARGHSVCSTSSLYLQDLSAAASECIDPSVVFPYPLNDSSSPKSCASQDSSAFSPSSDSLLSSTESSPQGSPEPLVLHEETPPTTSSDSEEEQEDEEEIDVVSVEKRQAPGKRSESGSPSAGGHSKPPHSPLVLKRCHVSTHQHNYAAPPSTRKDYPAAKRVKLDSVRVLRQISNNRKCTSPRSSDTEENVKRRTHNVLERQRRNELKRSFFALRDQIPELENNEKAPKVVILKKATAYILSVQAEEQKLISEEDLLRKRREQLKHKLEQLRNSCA
Excerpt: To further study the nature of the interaction between NT-B2R and MYC, we leveraged temperature-dependent circular dichroism (CD) spectroscopy. Here, if no conformation change was involved, the CD spectra of the MYC/NT-B2R mixture would be the addition of each component’s spectra (Figure 3J, calculated). However, we observed drastically different CD spectra (Figure 3J, measured and difference).
Protein thermal shift assay with GlomeltTM
Follow the Biotium’s protocol PI-3302133022. The reactions were set up in qPCR tubes, for each tube 1 μg recombinant MYC protein (1 μg/μL, 1 μL), GlomeltTM dye (10x, 2 μL), peptide ligand (2x, 10 uL, final concentration 500 μM), PBS (1x, 7 uL) to make a total volume of 20 μL with triplicate. For control group, PBS (1x, 17 μL) was used without peptide ligand. […] The resulting curve was fitted with a Boltzmann curve within the range of 45-60 °C and Tm was calculated from the fitted curve. […]
NT-B2R peptide and MYC protein were diluted to the final working concentrations of 100 μM and 0.1 mg/mL respectively. […] Spectra in the 180-280 nm range were recorded in a 1 mm path length cell.
The collected CD spectra were processed in OriginProTM. […] Spectra addition and subtraction were performed before the matrix conversion to generate the calculated and difference […]

U87 cells = assay: Cell viability test (resazurin), U87; assay type: cell-based, human; conditions: peptide-loaded DOTAP/DOPE liposomes vs empty liposomes, 48 hours, resazurin fluorescence
Procedure: Liposome loading capacity quantification
200 μL of the liposome solution (4 mg/mL) was dried under vacuum and extracted with 50 μL of DMSO. The obtained solution was analyzed on a reverse-phase HPLC and the corresponding peptide peak was identified by mass spectrometry. The peptide concentration was then determined by comparing the peak area to that of a standard solution. The loading capacities were calculated accordingly.
Cells were seeded in a 96-well plate at 4 k/well and incubated overnight. Afterward, the cells were washed with complete media and treated with varying concentrations of peptide-loaded liposome or empty liposome. The final media volume was 200 μL in each well. The cells were treated for 48 hours and then washed with fresh media to remove residue peptides or liposomes. For a single well, Resazurin (10 μg/mL in PBS) mixed with 200 μL of fresh cell media was added, and the plate was incubated at 37 °C for 3 hours. The 96-well plate was shaken for 15 min on an orbital mixer in dark, and the fluorescence (540 nm excitation, 590 nm emission) intensities were read by a […]
U87 cells were detached by trypsin and resuspended in 5 mL of PBS(1x). […] The protein concentrations were determined by BCA assay.
To prepare the sample for the cellular thermal shift assay, the quantified cell lysate was adjusted to a final concentration of 1.481 mg/mL with lysis buffer. […]

CC(C)C[C@@H]1NC(=O)[C@H](CCCNC(=N)N)NC(=O)[C@@H]2CCCCNC(=O)[C@@H]3C[C@H](C=CCOC(=O)CC[C@@H](C(N)=O)NC1=O)C[C@@H]3C=CCOC(=O)CC[C@H](N)C(=O)N[C@@H](Cc1c[nH]c3ccccc13)C(=O)N1CCC[C@H]1C(=O)N[C@@H](Cc1c[nH]cn1)C(=O)N[C@@H](CCCNC(=N)N)C(=O)N2 [NT-B2R] (H-EWPHRKRLE-NH2; linker 1-6-9 via X1; N-terminus and C-terminus assumed)
CD spectra of MYC/peptide mixture versus calculated sum (in words) (MYC): significant changes in the conformation landscape | metabolic activity and proliferation (viability), U87 (U87 cells): decreased metabolic activity and proliferation
